The structures appear in SMILES notation. Entries after “also recorded” stand apart in the source; their conditions may differ.

Data set [1] relates to Htt-72Q-expressing primary cortical neurons. In words: MTS cell viability assay in Htt-expressing primary cortical neurons. Type of data set: cell-based, mouse. To be noted: for viability of Htt-72Q-expressing neurons (MTS assay): DIV 5 cortical neurons transduced with Htt lentivirus, treated with drug or DMSO (=0 μM), MTS at DIV 14, vs. Htt-72Q (0 μM). How it is done:
Mouse primary cortical and striatal neurons from embryonic day (E) 15.5 Swiss Webster mouse fetuses (Taconic) were first plated in the minimal essential medium (MEM) containing 10% FBS, 0.45% glucose, 1 mM sodium pyruvate, 2 mM glutamine, 20 U/ml penicillin and 20 μg/ml streptomycin, for 3 h and then maintained in serum-free Neurobasal medium (Life Technologies) containing NeuroCult™ SM1 neuronal supplement ([…] Technologies), 0.5 mM glutamine and 25 μM glutamate for the first 3 d in a humidified incubator (37° C. in 5% CO2). Half of the medium was replaced with Neurobasal medium with SM1 and 0.5 mM glutamine every 3 days. Primary cortical neurons plated on 96-well flat clear bottom black plates (Corning #3904) at 4×10^4 cells/well were infected with Htt exon1 expression lentivirus (Htt-25Q or Htt-72Q) or control empty vector lentivirus at 5 days in vitro (DIV 5). Primary striatal neurons plated on 96-well plates at 1×10^5 cells/well were infected with Htt exon1 expression lentivirus at DIV 4. Viral copy number was adjusted for transduction of neurons on the basis of titer measured using the Lenti-X qRT-PCR titration kit (Clontech), and equal numbers of viral particles of Htt-25Q and Htt-72Q expressing lentiviruses were used for transduction. For the experiments to test effects of DNMT inhibitors, neurons were treated with inhibitors six hours after Htt lentiviral infection. One half of the media was changed every 3 days with media containing new drug. In knockdown experiments in Htt-expressing neurons, primary cortical neurons were cotransduced with Htt-expressing lentivirus and Dnmt shRNA or control shRNA lentivirus at DIV 5. pLKO.1-TRC1-luciferase (Luci) and pLKO.1-TRC2-LacZ were used as control for RNAi with pLKO.1-TRC1-Dnmt3a and pLKO.1-TRC2-Dnmt1, respectively. Lentiviral particles were prepared by transfecting 293LE cells with the lentiviral plasmid of interest along with packaging plasmid psPAX2 and envelope plasmid pCMV-SVG as described previously^86. Four days after transfection, viruses in the conditioned media were collected and purified using Lenti-X Concentrator (Clontech). Primary cortical neurons from BACHD mouse embryos (E15.5) were individually plated into separate wells and treated at DIV 4 with decitabine or vehicle for 3.5 days.
Background: Formazan colour is commonly taken as a measure of viable cells.

Data set [2] shares this test system. In words: Cell death by nuclear morphology (Hoechst 33342). Type of data set: cell-based, mouse. To be noted: vs. Htt-72Q (0 μM). The procedure: Mouse primary cortical and striatal neurons from embryonic day (E) 15.5 Swiss Webster mouse fetuses (Taconic) were first plated in the minimal essential medium (MEM) containing 10% FBS, 0.45% glucose, 1 mM sodium pyruvate, 2 mM glutamine, 20 U/ml penicillin and 20 μg/ml streptomycin, for 3 h and then maintained in serum-free Neurobasal medium (Life Technologies) containing NeuroCult™ SM1 neuronal supplement ([…] Technologies), 0.5 mM glutamine and 25 μM glutamate for the first 3 d in a humidified incubator (37° C. in 5% CO2). Half of the medium was replaced with Neurobasal medium with SM1 and 0.5 mM glutamine every 3 days. Primary cortical neurons plated on 96-well flat clear bottom black plates (Corning #3904) at 4×10^4 cells/well were infected with Htt exon1 expression lentivirus (Htt-25Q or Htt-72Q) or control empty vector lentivirus at 5 days in vitro (DIV 5). Primary striatal neurons plated on 96-well plates at 1×10^5 cells/well were infected with Htt exon1 expression lentivirus at DIV 4. Viral copy number was adjusted for transduction of neurons on the basis of titer measured using the Lenti-X qRT-PCR titration kit (Clontech), and equal numbers of viral particles of Htt-25Q and Htt-72Q expressing lentiviruses were used for transduction. For the experiments to test effects of DNMT inhibitors, neurons were treated with inhibitors six hours after Htt lentiviral infection. […]

In data set [3] the test system is mutant Htt aggregates in Htt-72Q-expressing primary cortical neurons. Put plainly: Mutant Htt aggregates, EM48 immunofluorescence and immunoblotting. Type of data set: cell-based, mouse. A general note: A western blot detects proteins with antibodies after separation by electrophoresis.
Procedure: (FIG. 8A) DIV 5 mouse primary cortical neurons were infected with Htt-72Q lentivirus and treated with decitabine or vehicle (DMSO). […] (FIG. 8B) DIV 5cortical neurons were infected with Htt lentivirus and treated with decitabine (0.2 μM) or DMSO. Neurons were fixed at DIV 11-12 and subjected to indirect immunofluorescence with a specific mouse monoclonal Htt antibody EM48, which preferentially detects aggregated mutant protein. Nuclei were labeled with Hoechst 33342. Images were captured using an Operetta high-content imaging system (PerkinElmer) with a 20× objective lens. Bar 100 μm. (FIG. 8C) EM48 immunofluorescence intensity in (FIG. 8B) was quantified using an ImageJ-based macro. […] (FIG. 8D) Cortical neurons transduced and processed as in (FIG. 8A) were directly harvested in SDS sample buffer at DIV 10 and subjected to immunoblotting with anti-Htt EM48 monoclonal antibody. Blot was reprobed with anti-β-actin antibody. Representative immunoblot from 3 independent experiments is shown. […] Data in (FIG. 8A) and (FIG. 8C) are presented as mean+SEM.
Image capture and quantification of Htt (EM48) immunofluorescence intensity were performed as described for those of NF.
Data set [4] deals with Bdnf exon IV, VI, and IX transcripts. In words: qRT-PCR of Bdnf exon transcripts in Htt-72Q cortical neurons. Type of data set: cell-based, mouse. To be noted: Htt-72Q-expressing cortical neurons; vs. Htt-72Q plus vehicle. How it is done: RNA was harvested 5 days later and subjected to qRT-PCR for total Bdnf (coding exon IX) using β-actin and 18S rRNA as reference genes. […] FIG. 3C depicts the schematic of the mouse Bdnf locus and the relative RNA levels of the Bdnf exons. White boxes, non-coding exons; gray box, coding exon. qRT-PCR was performed as in using exon-specific Bdnf primers. […] (FIG. 3G, FIG. 3H) Cortical neurons were co-transduced with lenti viruses expressing Htt and indicated shRNA and processed as in (FIG. 3C). […] (FIG. 3I) Primary cortical neurons from BACHD mice were treated with decitabine (0.2 μM) or vehicle for 3.5 days. qRT-PCR was performed using β-actin as a reference gene. […] Data are presented as mean+SEM.
(§1) Mouse primary cortical and striatal neurons from embryonic day (E) 15.5 Swiss Webster mouse fetuses (Taconic) were first plated in the minimal essential medium (MEM) containing 10% FBS, 0.45% glucose, 1 mM sodium pyruvate, 2 mM glutamine, 20 U/ml penicillin and 20 μg/ml streptomycin, for 3 h and then maintained in serum-free Neurobasal medium (Life Technologies) containing NeuroCult™ SM1 neuronal supplement ([…] Technologies), 0.5 mM glutamine and 25 μM glutamate for the first 3 d in a humidified incubator (37° C. in 5% CO2). Half of the medium was replaced with Neurobasal medium with SM1 and 0.5 mM glutamine every 3 days.
(In general: Quantitative PCR measures a nucleic acid by following its amplification.)

Data set [5] deals with downregulated genes in mutant Htt-expressing striatal neurons. Put plainly: qRT-PCR of striatal genes in Htt-72Q primary striatal neurons. To be noted: Htt-72Q striatal neurons. Type of data set: cell-based, mouse. How it is done:
as §1

The conditions of data set [6]: literature refs 64, 65; cited from earlier work.
The target of a further data set is T1, cytidine deaminase (Homo sapiens, UniProt P32320).
T1 construct: host or cells: liver (in vivo)
To be noted: literature refs 62, 64; cited from earlier work.

Data set [7] is described as follows: In vitro stability: preincubation at 37° C. in saline, then MTS neuroprotection assay. The settings on record: 0.2 mM in saline preincubated at 37° C. for 11 days, then 0.2 μM on Htt-72Q cortical neurons, MTS at DIV 14.
Source text: Primary cortical neurons grown in a 96-well plate were transduced with Htt-expressing lentiviruses at DIV 5 and assessed for mitochondrial metabolic activity at 9 days post-infection (DIV 14) using 3-(4,5-dimethylthiazol-2-yl)-5-(3-carboxymethoxyphenyl)-2-(4-sulfophenyl)-2H-tetrazolium (MTS) (Promega) per manufacturer's instructions. MTS-reducing activity was normalized for each condition to Htt-25Q lentiviruses treated with vehicle or cotransduced with control RNAi lentivirus (=1). Experiments were performed in 3 or more wells per experiment in three to five independent experiments.
The next data set has as its system R6/2 HD mouse brain. Put plainly: icv infusion in R6/2 mice, striatal qRT-PCR. Type of data set: in vivo. To be noted: 0.1 mM in saline icv infusion by osmotic pump from 6 weeks of age, one week, vs. R6/2-saline.
Where [8] appears, read: Htt-72Q cortical neurons, MTS assay (FIG. 1B).

T1 sequence (P32320 whole entry, species assumed): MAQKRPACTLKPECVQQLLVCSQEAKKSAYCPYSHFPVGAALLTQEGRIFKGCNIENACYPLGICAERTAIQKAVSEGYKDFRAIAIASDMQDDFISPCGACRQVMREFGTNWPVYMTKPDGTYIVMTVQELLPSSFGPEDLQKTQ

As to `Nc1ncn([C@H]2C[C@H](O)[C@@H](CO)O2)c(=O)n1` [decitabine, 5-aza-2′-deoxycytidine], the “viability of Htt-72Q-expressing neurons (MTS assay)” value in data set [1] was “increased the viability of Htt-72Q-expressing neurons; also recorded: increased the viability of mutant Htt-expressing neurons”. Besides, in data set [1] (setting [8]), the “concentration giving nearly full protection” value amounted to 0.2 µM and the “lowest concentration with significant neuroprotection” value came out at 0.02 µM. Moreover, the “Htt-72Q induced cell death (condensed or fragmented nuclei)” value in data set [2] is reported as “blocked Htt-72Q induced cell death”. Also, in data set [3] (0.2 μM, fixed at DIV 11-12, vs. Htt-72Q-DMSO), the “levels of mutant Htt aggregates (EM48 immunofluorescence intensity)” value is reported as “significantly decreased the levels of mutant Htt aggregates”. Moreover, in data set [3] (harvested at DIV 10), the “aggregated high molecular weight mutant Htt in stacking gel (EM48 immunoblot)” value is “could decrease the levels of aggregated high molecular weight mutant Htt”. The “expression of Bdnf exon IV, VI, and IX transcripts” value in data set [4] is “increased the expression of Bdnf exon IV, VI, and IX transcripts”. In data set [5], the “mRNA levels of Kdm8 (specificity control)” value is listed as “unchanged”. The “expression of downregulated genes (Drd2, Ppp1r1b, Penk, Pcp4, Rasd2)” value in [5] (RNA 5 days after infection, vs. Htt-72Q plus vehicle) is reported as “restored the expression of downregulated genes”. In addition, the “in vitro stability as reported previously” value in data set [6] is reported as “instability”. Besides, the “degradation by cytidine deaminase in the liver” value at cytidine deaminase is given as “degraded rapidly”. In data set [7], the “neuroprotective activity after preincubation (in vitro stability)” value is “lost its activity”.
`Nc1nc(=O)n([C@H]2C[C@H](O)[C@@H](CO)O2)cc1F` [FdCyd, 5-fluoro-2′-deoxycytidine]: the “viability of Htt-72Q-expressing neurons (MTS assay)” value in data set [1] was “increased the viability of Htt-72Q-expressing neurons”. In addition, the “expression of Bdnf exon IV, VI, and IX transcripts” value in data set [4] is “increased the expression of Bdnf exon IV, VI, and IX transcripts”. Moreover, in the data set on R6/2 HD mouse brain, the “striatal Penk RNA” value was “trend towards increasing”; the “striatal levels of Drd2, Ppp1r1b, Rasd2, and Adora2a mRNA” value is recorded as “restored”.

The values above are taken from patent US10842807B2, “Methods of treating neurodegenerative disorders comprising DNA methyltransferase inhibitors” (Washington University, priority 2016, dated 2020).
